Measurements as given in ChEMBL document CHEMBL5252509, “In depth analysis of kinase cross screening data to identify chemical starting points for inhibition of the Nek family of kinases” (Medchemcomm, 2018).

Columns and labels:
[1] = target: T1, Serine/threonine-protein kinase Nek2 (Homo sapiens) (UniProt P51955); assay: Inhibition of NEK2 (unknown origin) at 1 uM relative to control
T1 sequence (whole entry): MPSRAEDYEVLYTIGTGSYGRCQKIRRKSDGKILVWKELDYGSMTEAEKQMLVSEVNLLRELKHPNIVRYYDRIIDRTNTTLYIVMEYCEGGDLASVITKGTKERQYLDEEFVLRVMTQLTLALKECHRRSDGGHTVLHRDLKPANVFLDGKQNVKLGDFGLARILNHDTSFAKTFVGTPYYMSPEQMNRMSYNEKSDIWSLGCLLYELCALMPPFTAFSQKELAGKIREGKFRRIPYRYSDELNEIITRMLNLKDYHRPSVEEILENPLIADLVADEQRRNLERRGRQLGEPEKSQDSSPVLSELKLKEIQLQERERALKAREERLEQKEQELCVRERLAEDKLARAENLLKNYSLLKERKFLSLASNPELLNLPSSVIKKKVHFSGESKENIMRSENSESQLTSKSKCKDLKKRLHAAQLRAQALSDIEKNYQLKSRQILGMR

[2] = target: T2, Serine/threonine-protein kinase Nek3 (Homo sapiens) (UniProt P51956); assay: Inhibition of NEK3 (unknown origin) at 1 uM relative to control
T2 sequence (whole entry): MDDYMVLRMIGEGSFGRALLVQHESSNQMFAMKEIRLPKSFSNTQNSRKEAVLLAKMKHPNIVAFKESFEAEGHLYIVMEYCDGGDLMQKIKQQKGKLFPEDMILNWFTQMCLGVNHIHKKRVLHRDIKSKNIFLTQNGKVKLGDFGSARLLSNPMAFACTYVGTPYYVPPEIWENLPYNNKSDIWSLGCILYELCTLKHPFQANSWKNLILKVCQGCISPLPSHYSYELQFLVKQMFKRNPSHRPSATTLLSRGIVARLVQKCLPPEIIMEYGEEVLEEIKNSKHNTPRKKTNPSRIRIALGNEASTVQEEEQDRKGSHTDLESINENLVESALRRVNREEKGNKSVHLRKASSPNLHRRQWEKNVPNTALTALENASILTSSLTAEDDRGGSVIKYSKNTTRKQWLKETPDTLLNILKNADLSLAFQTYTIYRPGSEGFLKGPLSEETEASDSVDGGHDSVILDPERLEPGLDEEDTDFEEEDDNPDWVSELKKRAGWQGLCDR

[3] = target: T3, Serine/threonine-protein kinase Nek10 (Homo sapiens) (UniProt Q6ZWH5); assay: Inhibition of NEK10 (unknown origin) at 1 uM relative to control
T3 sequence (whole entry): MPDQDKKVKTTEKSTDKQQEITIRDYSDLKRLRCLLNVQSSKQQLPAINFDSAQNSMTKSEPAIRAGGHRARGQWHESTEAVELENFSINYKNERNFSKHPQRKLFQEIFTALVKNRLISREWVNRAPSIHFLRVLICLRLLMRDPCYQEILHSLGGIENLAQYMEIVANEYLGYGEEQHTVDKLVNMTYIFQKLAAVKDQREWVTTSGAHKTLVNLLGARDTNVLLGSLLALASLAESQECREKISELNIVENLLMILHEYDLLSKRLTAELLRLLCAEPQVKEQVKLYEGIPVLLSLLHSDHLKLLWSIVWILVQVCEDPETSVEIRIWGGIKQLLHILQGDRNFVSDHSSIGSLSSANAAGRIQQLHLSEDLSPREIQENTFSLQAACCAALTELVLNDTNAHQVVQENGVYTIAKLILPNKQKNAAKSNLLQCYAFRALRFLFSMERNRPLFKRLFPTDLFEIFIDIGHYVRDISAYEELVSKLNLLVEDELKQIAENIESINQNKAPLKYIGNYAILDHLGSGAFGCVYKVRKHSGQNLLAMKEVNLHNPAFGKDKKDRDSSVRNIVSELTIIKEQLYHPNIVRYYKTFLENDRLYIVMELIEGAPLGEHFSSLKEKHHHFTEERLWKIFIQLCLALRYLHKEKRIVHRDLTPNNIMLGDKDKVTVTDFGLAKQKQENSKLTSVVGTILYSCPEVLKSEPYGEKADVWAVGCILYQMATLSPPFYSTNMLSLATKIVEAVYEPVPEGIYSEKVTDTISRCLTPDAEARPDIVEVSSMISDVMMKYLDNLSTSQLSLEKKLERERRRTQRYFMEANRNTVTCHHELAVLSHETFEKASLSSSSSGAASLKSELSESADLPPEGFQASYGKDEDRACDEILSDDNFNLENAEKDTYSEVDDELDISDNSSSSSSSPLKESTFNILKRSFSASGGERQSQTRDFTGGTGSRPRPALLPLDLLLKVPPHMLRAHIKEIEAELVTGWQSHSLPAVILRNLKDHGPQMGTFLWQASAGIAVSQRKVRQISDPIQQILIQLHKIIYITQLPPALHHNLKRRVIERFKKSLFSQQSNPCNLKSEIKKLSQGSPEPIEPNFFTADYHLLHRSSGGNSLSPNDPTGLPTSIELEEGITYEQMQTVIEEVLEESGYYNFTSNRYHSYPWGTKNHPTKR

[4] = target: T4, Serine/threonine-protein kinase Nek11 (Homo sapiens) (UniProt Q8NG66); assay: Inhibition of NEK11 (unknown origin) at 1 uM relative to control
T4 sequence (whole entry): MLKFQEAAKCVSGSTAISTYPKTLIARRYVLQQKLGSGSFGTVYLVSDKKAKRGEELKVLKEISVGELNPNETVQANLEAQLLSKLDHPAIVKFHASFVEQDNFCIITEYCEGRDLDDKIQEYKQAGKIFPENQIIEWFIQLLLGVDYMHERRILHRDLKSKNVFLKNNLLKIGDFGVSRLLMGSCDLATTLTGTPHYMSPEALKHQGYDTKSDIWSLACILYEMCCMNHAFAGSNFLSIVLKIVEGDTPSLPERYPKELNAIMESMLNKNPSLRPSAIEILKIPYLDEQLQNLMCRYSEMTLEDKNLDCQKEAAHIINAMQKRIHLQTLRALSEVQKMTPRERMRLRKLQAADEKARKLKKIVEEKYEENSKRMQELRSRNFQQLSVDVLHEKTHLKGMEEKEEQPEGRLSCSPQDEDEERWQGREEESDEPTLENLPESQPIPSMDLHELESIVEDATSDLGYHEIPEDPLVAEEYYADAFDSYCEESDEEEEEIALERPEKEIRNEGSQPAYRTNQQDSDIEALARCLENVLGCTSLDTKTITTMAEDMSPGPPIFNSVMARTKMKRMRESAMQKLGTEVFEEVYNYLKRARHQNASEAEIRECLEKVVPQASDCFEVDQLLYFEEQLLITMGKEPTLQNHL

## COc1cc(Nc2ncc3c(C)nc(-c4cc5ccccc5[nH]4)n3n2)cc(OC)c1OC
[1]
  inhibition: 70%
[2]
  inhibition: 89%
[3]
  inhibition: 0%
[4]
  inhibition: 86%

## COc1cccc(C2=C(Nc3cccc(Cl)c3)C(=O)NC2=O)c1
[1]
  inhibition: 13%
[2]
  inhibition: 5%
[3]
  inhibition: 73%
[4]
  inhibition: 0%

## O=c1[nH]ccc2nc(N[C@@H]3CCCNC3)nc(Nc3ccc(S(=O)(=O)N4CCOCC4)cc3)c12
[1]
  inhibition: 20%
[2]
  inhibition: 11%
[3]
  inhibition: 4.4%
[4]
  inhibition: 100%

## Cn1cc(-c2ccc3c(c2)CCN3C(=O)Cc2cccc(F)c2)c2c(N)ncnc21
[1]
  inhibition: 73%
[2]
  inhibition: 11%
[3]
  inhibition: 22%
[4]
  inhibition: 8%

## CC(C)Oc1ccc2c(-c3ccnc(Nc4ccc(N5CCN(C)CC5)cc4)n3)cnn2n1
[1]
  inhibition: 6.7%
[2]
  inhibition: 1.5%
[3]
  inhibition: 2.4%
[4]
  inhibition: 14%

## Nc1ncc(-c2cccnc2)c2scc(-c3ccc4c(c3)CCN4C(=O)Cc3ccccc3)c12
[1]
  inhibition: 70%
[2]
  inhibition: 1%
[3]
  inhibition: 14%
[4]
  inhibition: 44%

## COc1ccc(Nc2ncc(C#N)c(Nc3ccccc3C(N)=O)n2)cc1N1CCN(C)CC1
[1]
  inhibition: 0.4%
[2]
  inhibition: 6.5%
[3]
  inhibition: 5.9%
[4]
  inhibition: 2.5%

## O=S(=O)(c1ccc(-c2ccnc3[nH]ccc23)cc1)N1CCCC1
[1]
  inhibition: 16%
[2]
  inhibition: 16%
[3]
  inhibition: 15%
[4]
  inhibition: 0%

## COc1cccc(C2=C(Nc3ccc(Cl)c(C(=O)O)c3)C(=O)NC2=O)c1
[1]
  inhibition: 0%
[2]
  inhibition: 7%
[3]
  inhibition: 73%
[4]
  inhibition: 27%

## Cn1cc(-c2ccc3c(c2)CCN3C(=O)Cc2cccc(C(F)(F)F)c2)c2c(N)ncnc21
[1]
  inhibition: 15%
[2]
  inhibition: 0%
[3]
  inhibition: 18%
[4]
  inhibition: 14%

## Cn1cc(-c2ccc3c(c2)CCN3C(=O)Cc2cccc(Cl)c2)c2c(N)ncnc21
[1]
  inhibition: 66%
[2]
  inhibition: 1%
[3]
  inhibition: 18%
[4]
  inhibition: 0%

## NCCNS(=O)(=O)c1ccc(-c2ccnc3[nH]ccc23)cc1
[1]
  inhibition: 0%
[2]
  inhibition: 14%
[3]
  inhibition: 69%
[4]
  inhibition: 24%

## Cn1cc(-c2ccc3c(c2)CCN3C(=O)Cc2cc(F)cc(F)c2F)c2c(N)ncnc21
[1]
  inhibition: 84%
[2]
  inhibition: 0%
[3]
  inhibition: 10%
[4]
  inhibition: 38%

## Cn1cc(-c2ccc3c(c2)CCN3C(=O)Cc2ccccc2Cl)c2c(N)ncnc21
[1]
  inhibition: 79%
[2]
  inhibition: 0%
[3]
  inhibition: 0%
[4]
  inhibition: 0%

## COc1cccc(C2=C(Nc3cccc(O)c3)C(=O)NC2=O)c1
[1]
  inhibition: 0%
[2]
  inhibition: 19%
[3]
  inhibition: 67%
[4]
  inhibition: 0%

## COc1ccc(C2=C(Nc3cccc(C(=O)O)c3)C(=O)NC2=O)cc1
[1]
  inhibition: 10%
[2]
  inhibition: 31%
[3]
  inhibition: 2%
[4]
  inhibition: 30%

## O=C1NC(=O)C(c2ccccc2Cl)=C1Nc1cccc(Cl)c1
[1]
  inhibition: 10%
[2]
  inhibition: 56%
[3]
  inhibition: 51%
[4]
  inhibition: 0%

## COc1cccc(CC(=O)N2CCc3cc(-c4cn(C)c5ncnc(N)c45)ccc32)c1
[1]
  inhibition: 74%
[2]
  inhibition: 4%
[3]
  inhibition: 7%
[4]
  inhibition: 49%

## Nc1nccc2scc(-c3ccc4c(c3)CCN4C(=O)Cc3ccccc3)c12
[1]
  inhibition: 4%
[2]
  inhibition: 10%
[3]
  inhibition: 9%
[4]
  inhibition: 0%

## CN(C)CCNS(=O)(=O)c1ccc(-c2ccnc3[nH]ccc23)cc1
[1]
  inhibition: 0%
[2]
  inhibition: 0%
[3]
  inhibition: 17%
[4]
  inhibition: 0%

## Cn1cc(-c2ccc3c(c2)CCN3C(=O)Cc2cc(F)cc(C(F)(F)F)c2)c2c(N)ncnc21
[1]
  inhibition: 18%
[2]
  inhibition: 0%
[3]
  inhibition: 6%
[4]
  inhibition: 8%

## Cc1ccccc1CC(=O)N1CCc2cc(-c3cn(C)c4ncnc(N)c34)ccc21
[1]
  inhibition: 97%
[2]
  inhibition: 0%
[3]
  inhibition: 0%
[4]
  inhibition: 58%

## Cc1ccc(CC(=O)N2CCc3cc(-c4cn(C)c5ncnc(N)c45)ccc32)cc1
[1]
  inhibition: 96.9%
[2]
  inhibition: 7%
[3]
  inhibition: 0%
[4]
  inhibition: 59%

## CC(C)c1nc(-c2cccc(NS(=O)(=O)c3c(F)cccc3F)c2F)c(-c2ccnc(Nc3ccc(N4CCOCC4)nc3)n2)s1
[1]
  inhibition: 0.9%
[2]
  inhibition: 99%
[3]
  inhibition: 100%
[4]
  inhibition: 1.4%

## Nc1nccc2scc(-c3ccc4c(c3)CCN4C(=O)Cc3cc(F)ccc3F)c12
[1]
  inhibition: 7%
[2]
  inhibition: 0%
[3]
  inhibition: 12%
[4]
  inhibition: 9%

## CS(=O)(=O)Nc1ccc(-c2ccnc3[nH]ccc23)cc1
[1]
  inhibition: 0%
[2]
  inhibition: 4%
[3]
  inhibition: 71%
[4]
  inhibition: 17%

## CC(C)c1nc(-c2cccc(NS(=O)(=O)c3ccccc3)c2)c(-c2ccnc(Nc3ccc4c(c3)CN(C)CC4)n2)s1
[1]
  inhibition: 66%
[2]
  inhibition: 73%
[3]
  inhibition: 100%
[4]
  inhibition: 2.3%

## Nc1ncc(-c2cn[nH]c2)c2scc(-c3ccc4c(c3)CCN4C(=O)Cc3ccccc3)c12
[1]
  inhibition: 85%
[2]
  inhibition: 0%
[3]
  inhibition: 22%
[4]
  inhibition: 87%

## Cn1cc(-c2cnc(N)c3c(-c4ccc5c(c4)CCN5C(=O)Cc4ccccc4)csc23)cn1
[1]
  inhibition: 28%
[2]
  inhibition: 1%
[3]
  inhibition: 22%
[4]
  inhibition: 47%

## c1ccc(-c2ccnc3[nH]ccc23)cc1
[1]
  inhibition: 74%
[2]
  inhibition: 19%
[3]
  inhibition: 30%
[4]
  inhibition: 0%
